According to ChEMBL document CHEMBL1201862, “PubChem BioAssay data set” (2004):
Active and inactive are the calls of the source.

Columns and labels:
[1] = molecular target: Cytochrome P450 2C9 (Homo sapiens, UniProt P11712)
[2] = molecular target: T1, Corticotropin-releasing factor receptor 2/Corticotropin-releasing factor-binding protein (Homo sapiens, UniProt P24387+Q13324); assay: activators of CRF receptor 2 with binding protein – uHTS hits, confirmation (AID 602473); type: functional; settings: read-out: EC50_Mean
T1 sequence (Q13324 whole entry): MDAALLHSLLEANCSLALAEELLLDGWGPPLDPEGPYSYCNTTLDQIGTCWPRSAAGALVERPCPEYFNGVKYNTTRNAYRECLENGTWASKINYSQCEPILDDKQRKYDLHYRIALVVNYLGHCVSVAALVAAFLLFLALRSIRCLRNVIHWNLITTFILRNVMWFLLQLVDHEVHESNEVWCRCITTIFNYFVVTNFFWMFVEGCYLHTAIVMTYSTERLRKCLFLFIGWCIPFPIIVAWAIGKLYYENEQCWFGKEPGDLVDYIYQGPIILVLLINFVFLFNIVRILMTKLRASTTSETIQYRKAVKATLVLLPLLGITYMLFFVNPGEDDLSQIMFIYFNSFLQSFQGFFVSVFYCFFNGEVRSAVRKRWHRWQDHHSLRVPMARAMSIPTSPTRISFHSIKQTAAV
T1 sequence (P24387 whole entry): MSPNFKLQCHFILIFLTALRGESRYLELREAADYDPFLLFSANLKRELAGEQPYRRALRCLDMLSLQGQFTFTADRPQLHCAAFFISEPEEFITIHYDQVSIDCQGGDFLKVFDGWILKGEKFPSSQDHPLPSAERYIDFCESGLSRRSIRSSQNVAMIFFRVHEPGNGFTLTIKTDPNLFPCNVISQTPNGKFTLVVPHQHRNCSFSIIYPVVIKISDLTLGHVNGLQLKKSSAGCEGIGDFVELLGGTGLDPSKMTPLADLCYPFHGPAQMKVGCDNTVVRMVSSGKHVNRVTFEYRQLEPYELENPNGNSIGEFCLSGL

[3] = molecular target: T2, Cytochrome P450 3A4 (Homo sapiens, UniProt P08684)
T2 sequence (P08684 whole entry): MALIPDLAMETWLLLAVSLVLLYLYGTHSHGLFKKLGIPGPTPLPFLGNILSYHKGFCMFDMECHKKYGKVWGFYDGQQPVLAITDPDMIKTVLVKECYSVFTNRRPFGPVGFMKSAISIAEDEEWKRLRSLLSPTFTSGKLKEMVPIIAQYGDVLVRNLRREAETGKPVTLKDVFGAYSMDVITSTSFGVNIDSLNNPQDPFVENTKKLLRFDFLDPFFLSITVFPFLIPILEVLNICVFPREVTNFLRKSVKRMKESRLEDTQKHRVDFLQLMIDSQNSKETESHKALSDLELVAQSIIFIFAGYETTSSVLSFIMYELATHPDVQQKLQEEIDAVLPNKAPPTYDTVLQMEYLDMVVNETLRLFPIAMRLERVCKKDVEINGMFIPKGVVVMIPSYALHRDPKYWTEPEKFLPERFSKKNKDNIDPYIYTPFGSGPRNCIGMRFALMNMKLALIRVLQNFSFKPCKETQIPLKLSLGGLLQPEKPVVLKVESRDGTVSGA

[4] = molecular target: T3, Cytochrome P450 1A2 (Homo sapiens, UniProt P05177);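 also: PubChem cytochrome P450 panel assay, CYP1A2 panel member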
T3 sequence (P05177 whole entry): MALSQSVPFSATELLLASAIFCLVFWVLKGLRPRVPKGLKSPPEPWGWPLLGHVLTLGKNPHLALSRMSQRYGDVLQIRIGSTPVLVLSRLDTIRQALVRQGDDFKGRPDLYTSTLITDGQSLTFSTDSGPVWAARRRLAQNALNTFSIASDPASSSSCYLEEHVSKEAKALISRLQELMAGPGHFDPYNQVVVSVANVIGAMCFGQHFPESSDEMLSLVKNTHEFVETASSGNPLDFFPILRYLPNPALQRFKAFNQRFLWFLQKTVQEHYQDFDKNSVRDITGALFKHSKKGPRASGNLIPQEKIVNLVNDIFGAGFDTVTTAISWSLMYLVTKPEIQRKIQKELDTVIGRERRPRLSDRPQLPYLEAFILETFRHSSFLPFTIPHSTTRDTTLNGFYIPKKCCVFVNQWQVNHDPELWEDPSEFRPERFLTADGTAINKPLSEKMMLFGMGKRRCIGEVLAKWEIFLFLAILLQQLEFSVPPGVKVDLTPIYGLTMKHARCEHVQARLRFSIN

[5] = molecular target: T1, Corticotropin-releasing factor receptor 2/Corticotropin-releasing factor-binding protein; assay: Dose Response confirmation of uHTS hits for small molecule antagonists of the CRF-binding protein and CRF-R2 receptor complex.; type: functional; settings: read-out: IC50_Mean
[6] = CRF-BP/CRF-R2 complex antagonists, dose response, cell-based, uHTS hits, 384-well (AID 651639); type: functional, Homo sapiens; settings: read-out: IC50_Mean
[7] = molecular target: T4, Zinc finger protein mex-5 (Caenorhabditis elegans, UniProt Q9XUB2); assay: MEX-5/TCR-2 RNA interaction inhibitors, dose response, biochemical, C. elegans, fluorescence polarization (AID 1960)
T4 sequence (Q9XUB2 whole entry): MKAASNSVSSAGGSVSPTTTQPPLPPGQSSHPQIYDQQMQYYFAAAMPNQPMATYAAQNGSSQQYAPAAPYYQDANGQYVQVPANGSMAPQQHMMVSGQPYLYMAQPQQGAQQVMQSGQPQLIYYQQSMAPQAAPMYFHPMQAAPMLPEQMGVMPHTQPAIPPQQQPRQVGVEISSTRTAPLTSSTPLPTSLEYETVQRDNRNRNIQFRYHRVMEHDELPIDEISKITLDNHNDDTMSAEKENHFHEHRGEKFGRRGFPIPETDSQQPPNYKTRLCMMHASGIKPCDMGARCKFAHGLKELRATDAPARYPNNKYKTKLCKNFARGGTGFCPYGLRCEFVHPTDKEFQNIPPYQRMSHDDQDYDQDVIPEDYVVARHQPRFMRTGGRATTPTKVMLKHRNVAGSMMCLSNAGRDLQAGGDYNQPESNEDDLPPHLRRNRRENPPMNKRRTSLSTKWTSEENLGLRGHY

[8] = molecular target: T5, RNA-binding protein pos-1 (Caenorhabditis elegans, UniProt G5EF15); assay: inhibitors of POS-1/mex-3 RNA binding, dose response, biochemical, fluorescence polarization (AID 1964);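 also: purified POS-1 fused to maltose binding protein made in E. coli; potency of compounds blocking POS-1 binding to fluorescent RNA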
T5 sequence (G5EF15 whole entry): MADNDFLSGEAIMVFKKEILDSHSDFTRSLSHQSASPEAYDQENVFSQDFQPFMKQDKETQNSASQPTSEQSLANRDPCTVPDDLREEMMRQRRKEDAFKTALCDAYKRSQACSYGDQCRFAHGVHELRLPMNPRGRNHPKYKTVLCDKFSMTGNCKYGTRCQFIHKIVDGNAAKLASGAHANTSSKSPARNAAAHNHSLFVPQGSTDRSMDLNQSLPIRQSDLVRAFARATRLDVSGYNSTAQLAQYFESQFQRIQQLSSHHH

[9] = molecular target: T6, Endoribonuclease toxin MazF (Escherichia coli K-12, UniProt P0AE70); assay: MazF toxin RNase activators, dose response, biochemical, fluorescence, single-stranded RNA substrate, uHTS hits (AID 588481); type: functional
T6 sequence (P0AE70 whole entry): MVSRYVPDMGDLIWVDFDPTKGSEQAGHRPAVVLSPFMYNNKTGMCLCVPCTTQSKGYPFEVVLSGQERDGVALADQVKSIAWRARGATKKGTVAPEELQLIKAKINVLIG

[10] = molecular target: T6, Endoribonuclease toxin MazF; assay: fluorescent RNA oligo signal without MazF, dose response, counter-screen for MazEF activator project, biochemical, fluorescence, single-stranded RNase substrate (AID 588502); type: functional
[11] = molecular target: T7, Probable nicotinate-nucleotide adenylyltransferase (Staphylococcus aureus (strain N315), UniProt P65502); type: functional, Staphylococcus aureus subsp. aureus N315;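 as to IC50 Mean: confirmatory dose-response retesting of NadD inhibitor hits first found in an ultra-high-throughput screen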
T7 sequence (P65502 whole entry): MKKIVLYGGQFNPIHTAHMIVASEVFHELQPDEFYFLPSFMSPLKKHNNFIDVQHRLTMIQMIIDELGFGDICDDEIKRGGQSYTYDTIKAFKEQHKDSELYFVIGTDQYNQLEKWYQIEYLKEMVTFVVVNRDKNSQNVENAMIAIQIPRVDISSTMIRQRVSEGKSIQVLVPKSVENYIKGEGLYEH

[12] = molecular target: T7, Probable nicotinate-nucleotide adenylyltransferase; type: functional, Staphylococcus aureus subsp. aureus N315; settings: read-out: IC50_Mean
[13] = molecular target: T8, Low molecular weight phosphotyrosine protein phosphatase (Homo sapiens, UniProt P24666); type: functional; settings: read-out: IC50_Mean
T8 sequence (P24666 whole entry): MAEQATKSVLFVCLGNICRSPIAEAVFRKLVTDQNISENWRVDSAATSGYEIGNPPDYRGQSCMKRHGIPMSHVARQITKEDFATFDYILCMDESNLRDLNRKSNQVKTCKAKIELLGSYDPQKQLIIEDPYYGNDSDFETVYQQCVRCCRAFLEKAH

[14] = molecular target: T8, Low molecular weight phosphotyrosine protein phosphatase; type: functional; settings: read-out: IC50_Mean; remark: listed apart in the source
[15] = molecular target: 26S proteasome non-ATPase regulatory subunit 14 (Homo sapiens, UniProt O00487); assay: inhibition of proteasome subunit RPN11 – biochemical, fluorescence polarization, uHTS hits, confirmation (AID 602368); type: functional
Chain of 26S proteasome non-ATPase regulatory subunit 14 (O00487 whole entry): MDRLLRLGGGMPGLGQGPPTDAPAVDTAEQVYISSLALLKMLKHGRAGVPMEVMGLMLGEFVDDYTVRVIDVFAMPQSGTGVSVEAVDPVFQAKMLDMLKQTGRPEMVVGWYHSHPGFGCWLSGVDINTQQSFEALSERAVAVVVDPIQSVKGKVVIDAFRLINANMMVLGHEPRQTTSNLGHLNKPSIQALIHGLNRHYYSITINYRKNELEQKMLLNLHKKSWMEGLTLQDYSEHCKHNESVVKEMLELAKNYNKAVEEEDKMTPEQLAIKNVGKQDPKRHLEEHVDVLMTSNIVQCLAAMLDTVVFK

[16] = molecular target: 72 kDa type IV collagenase (Homo sapiens, UniProt P08253); assay: Dose Response validation of uHTS RPN11 inhibitor hits using a MMP-2 Fluorescence assay.; type: functional
Chain of 72 kDa type IV collagenase (P08253 whole entry, the tested form may be a part): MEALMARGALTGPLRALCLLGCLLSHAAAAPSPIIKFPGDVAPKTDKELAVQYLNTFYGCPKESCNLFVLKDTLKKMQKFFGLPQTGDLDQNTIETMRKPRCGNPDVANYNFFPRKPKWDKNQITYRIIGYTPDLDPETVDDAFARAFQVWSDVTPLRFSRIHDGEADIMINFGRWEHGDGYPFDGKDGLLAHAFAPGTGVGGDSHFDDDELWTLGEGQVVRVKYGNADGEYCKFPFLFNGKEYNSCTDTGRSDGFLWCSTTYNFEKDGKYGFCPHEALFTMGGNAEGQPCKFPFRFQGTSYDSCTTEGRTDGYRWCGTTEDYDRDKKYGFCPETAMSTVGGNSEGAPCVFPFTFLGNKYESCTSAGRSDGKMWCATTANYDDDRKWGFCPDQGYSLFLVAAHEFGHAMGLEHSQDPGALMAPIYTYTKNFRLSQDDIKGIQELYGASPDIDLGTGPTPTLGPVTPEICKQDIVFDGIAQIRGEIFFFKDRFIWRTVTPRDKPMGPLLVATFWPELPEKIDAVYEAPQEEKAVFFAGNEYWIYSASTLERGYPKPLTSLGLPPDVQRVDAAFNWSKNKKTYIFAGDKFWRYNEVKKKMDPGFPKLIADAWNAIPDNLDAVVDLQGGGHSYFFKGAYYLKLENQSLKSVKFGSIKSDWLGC

[17] = molecular target: T9, Carboxy-terminal domain RNA polymerase II polypeptide A small phosphatase 1 (Homo sapiens, UniProt Q9GZU7); assay: inhibitors of CTDSP1, concentration-response testing, biochemical assay, absorbance-based, actives from ultra-high-throughput screening (AID 540297); type: functional
T9 sequence (Q9GZU7 whole entry): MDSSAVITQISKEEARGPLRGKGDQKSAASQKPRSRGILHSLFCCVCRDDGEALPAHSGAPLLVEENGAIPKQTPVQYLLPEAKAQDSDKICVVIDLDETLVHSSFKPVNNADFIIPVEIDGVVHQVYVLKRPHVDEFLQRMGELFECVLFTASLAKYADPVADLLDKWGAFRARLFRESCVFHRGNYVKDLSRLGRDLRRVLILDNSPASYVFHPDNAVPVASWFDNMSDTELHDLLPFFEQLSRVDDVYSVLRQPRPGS

[18] = molecular target: Prothrombin (Bos taurus, UniProt P00735); assay: thrombin inhibition, dose response, biochemical, fluorescence polarization, uHTS hits (AID 602369); type: functional
[19] = molecular target: 5-hydroxytryptamine receptor 5A (Homo sapiens, UniProt P47898); assay: Counterscreen for agonists of OPRM1-OPRD1 heterodimerization: luminescence-based cell-based high throughput dose response assay to identify agonists of 5-hydroxytryptamine (serotonin) 5A receptor (HTR5A). [Related pubchem assays (depositor defined):AID504326, AID504355, AID504692, AID504904, AID504905]; type: functional
Chain of 5-hydroxytryptamine receptor 5A (P47898 whole entry): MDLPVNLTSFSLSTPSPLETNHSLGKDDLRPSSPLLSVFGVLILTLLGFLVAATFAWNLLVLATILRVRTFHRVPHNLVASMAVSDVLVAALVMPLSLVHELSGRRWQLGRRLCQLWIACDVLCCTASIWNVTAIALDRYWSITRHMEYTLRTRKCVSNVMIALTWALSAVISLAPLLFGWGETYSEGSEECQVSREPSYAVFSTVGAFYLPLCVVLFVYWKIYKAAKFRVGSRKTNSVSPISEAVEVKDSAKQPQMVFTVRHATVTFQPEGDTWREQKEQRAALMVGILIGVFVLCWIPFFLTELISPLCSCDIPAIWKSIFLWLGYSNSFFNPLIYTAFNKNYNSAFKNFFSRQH

[20] = molecular target: Mu-type opioid receptor (Homo sapiens, UniProt P35372); assay: (§1) Counterscreen for agonists of heterodimerization of the mu 1 (OPRM1) and delta 1 (OPRD1) opioid receptors: Luminescence-based cell-based high throughput dose response assay to identify agonists of OPRM1 homodimerization.; type: functional
Chain of Mu-type opioid receptor (P35372 whole entry): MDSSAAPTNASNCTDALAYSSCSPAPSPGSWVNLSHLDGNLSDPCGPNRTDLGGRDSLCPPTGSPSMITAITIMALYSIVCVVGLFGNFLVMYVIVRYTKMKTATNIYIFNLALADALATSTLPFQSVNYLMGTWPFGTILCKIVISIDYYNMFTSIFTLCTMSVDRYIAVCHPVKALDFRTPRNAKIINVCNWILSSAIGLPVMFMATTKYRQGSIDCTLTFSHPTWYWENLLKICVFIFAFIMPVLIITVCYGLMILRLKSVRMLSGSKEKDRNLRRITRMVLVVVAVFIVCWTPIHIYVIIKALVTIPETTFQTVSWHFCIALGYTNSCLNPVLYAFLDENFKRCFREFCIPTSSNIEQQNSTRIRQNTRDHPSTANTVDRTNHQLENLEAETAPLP

[21] = molecular target: Delta-type opioid receptor (Homo sapiens, UniProt P41143); assay: as §1, with “of OPRD1” for “of OPRM1”, “homodimerization. [Related pubchem assays (depositor defined):AID504326, AID504355, AID504692, AID504904, AID504905]” for “homodimerization.”; type: functional
Chain of Delta-type opioid receptor (P41143 whole entry): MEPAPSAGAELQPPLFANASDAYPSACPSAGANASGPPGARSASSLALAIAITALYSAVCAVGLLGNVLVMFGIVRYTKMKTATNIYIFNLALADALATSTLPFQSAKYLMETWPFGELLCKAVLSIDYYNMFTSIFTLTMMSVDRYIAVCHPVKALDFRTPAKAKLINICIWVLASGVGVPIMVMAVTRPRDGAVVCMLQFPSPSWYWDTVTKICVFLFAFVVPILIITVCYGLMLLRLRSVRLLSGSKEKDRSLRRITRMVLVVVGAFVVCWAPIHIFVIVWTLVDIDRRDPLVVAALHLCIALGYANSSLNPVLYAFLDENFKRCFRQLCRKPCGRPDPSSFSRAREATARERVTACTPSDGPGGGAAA

[22] = molecular target: Voltage-gated inwardly rectifying potassium channel KCNH2 (Homo sapiens, UniProt Q12809); settings: Potency;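 also: confirmatory quantitative high-throughput screen measuring inhibition of hERG channel activity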
Chain of Voltage-gated inwardly rectifying potassium channel KCNH2 (Q12809 whole entry): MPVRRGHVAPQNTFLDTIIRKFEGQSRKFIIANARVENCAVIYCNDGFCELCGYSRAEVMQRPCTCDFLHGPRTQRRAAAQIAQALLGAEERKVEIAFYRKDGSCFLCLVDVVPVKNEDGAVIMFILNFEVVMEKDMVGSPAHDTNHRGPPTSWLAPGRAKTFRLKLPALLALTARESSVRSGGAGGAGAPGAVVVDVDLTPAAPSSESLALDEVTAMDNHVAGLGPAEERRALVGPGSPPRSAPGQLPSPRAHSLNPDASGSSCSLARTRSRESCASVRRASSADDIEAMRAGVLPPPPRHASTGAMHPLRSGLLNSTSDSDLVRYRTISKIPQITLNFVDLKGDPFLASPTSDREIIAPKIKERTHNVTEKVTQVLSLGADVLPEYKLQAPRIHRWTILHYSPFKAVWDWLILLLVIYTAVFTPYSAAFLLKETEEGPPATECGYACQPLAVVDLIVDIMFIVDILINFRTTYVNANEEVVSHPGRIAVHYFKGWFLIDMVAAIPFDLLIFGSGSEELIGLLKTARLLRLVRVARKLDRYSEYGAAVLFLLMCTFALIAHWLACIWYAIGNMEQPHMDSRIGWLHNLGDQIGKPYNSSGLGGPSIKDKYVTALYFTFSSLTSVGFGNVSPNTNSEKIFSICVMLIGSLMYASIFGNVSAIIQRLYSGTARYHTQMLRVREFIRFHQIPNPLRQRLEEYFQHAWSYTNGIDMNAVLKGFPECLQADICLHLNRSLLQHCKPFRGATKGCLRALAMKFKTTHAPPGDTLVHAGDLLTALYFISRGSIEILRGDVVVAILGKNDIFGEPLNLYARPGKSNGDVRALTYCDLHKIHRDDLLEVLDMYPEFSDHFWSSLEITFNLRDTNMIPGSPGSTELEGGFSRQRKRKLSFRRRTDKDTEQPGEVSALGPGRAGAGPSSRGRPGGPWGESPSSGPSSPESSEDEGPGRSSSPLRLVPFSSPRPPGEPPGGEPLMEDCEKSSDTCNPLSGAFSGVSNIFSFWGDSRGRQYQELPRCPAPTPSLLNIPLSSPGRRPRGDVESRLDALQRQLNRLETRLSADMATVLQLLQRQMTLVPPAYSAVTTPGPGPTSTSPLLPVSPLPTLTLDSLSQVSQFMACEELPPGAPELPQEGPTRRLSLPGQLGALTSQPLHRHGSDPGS

[23] = molecular target: T10, Ubiquitin-conjugating enzyme E2 N (Homo sapiens, UniProt P61088); type: functional
T10 sequence (P61088 whole entry): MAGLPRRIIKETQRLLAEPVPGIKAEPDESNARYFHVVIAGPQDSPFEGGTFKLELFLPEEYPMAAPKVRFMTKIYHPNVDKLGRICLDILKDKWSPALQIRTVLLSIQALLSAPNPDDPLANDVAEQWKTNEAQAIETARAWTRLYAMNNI

[24] = molecular target: T10, Ubiquitin-conjugating enzyme E2 N; type: functional; remark: listed apart in the source
[25] = molecular target: T11, Bcl-2-related protein A1 (Mus musculus, UniProt Q07440); type: functional;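 also: confirmatory dose–response counterscreen on Bfl-1, used to check hits from a UBC13 polyubiquitin inhibitor campaign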
T11 sequence (Q07440 whole entry): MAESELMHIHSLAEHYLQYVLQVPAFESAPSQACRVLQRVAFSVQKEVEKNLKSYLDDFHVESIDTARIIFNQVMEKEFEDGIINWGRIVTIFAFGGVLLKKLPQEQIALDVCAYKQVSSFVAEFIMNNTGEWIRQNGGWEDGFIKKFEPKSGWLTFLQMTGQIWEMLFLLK

[26] = molecular target: T2, Cytochrome P450 3A4; settings: Potency
[27] = molecular target: Nonstructural protein 1 (Influenza A virus, UniProt Q194T2); type: functional, Influenza A virus (A/California/07/2009(H1N1))
Chain of Nonstructural protein 1 (Q194T2 whole entry): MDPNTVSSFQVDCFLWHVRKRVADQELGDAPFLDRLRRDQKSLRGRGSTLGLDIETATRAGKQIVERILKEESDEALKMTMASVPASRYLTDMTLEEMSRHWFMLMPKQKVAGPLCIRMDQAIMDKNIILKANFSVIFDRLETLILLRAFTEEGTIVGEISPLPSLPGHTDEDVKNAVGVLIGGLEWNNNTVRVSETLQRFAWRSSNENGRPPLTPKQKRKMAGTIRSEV

[28] = molecular target: T12, Rac GTPase-activating protein 1 (Homo sapiens, UniProt Q9H0H5); assay: MgcRacGAP GTPase-activating activity inhibitors, confirmation, biochemical, ADP Hunter fluorescence, primary and confirmatory (AID 624330); type: functional
T12 sequence (Q9H0H5 whole entry): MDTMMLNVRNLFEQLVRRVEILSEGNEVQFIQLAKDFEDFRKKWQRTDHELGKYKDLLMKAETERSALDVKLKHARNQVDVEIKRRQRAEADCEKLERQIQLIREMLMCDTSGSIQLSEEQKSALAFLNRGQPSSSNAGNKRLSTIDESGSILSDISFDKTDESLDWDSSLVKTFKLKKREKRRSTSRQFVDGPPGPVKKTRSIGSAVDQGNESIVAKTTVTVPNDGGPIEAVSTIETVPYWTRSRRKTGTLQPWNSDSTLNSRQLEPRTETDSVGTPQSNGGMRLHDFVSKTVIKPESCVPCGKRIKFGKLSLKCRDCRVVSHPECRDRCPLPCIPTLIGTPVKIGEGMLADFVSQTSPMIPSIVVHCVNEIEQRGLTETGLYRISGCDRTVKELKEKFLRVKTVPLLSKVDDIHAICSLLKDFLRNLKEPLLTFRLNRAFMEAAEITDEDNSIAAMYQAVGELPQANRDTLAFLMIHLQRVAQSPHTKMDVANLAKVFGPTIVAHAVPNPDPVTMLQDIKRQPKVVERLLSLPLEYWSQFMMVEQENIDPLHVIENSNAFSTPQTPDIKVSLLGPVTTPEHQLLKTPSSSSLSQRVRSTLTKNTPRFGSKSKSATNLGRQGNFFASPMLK

Chain of Cytochrome P450 2C9 (P11712 whole entry): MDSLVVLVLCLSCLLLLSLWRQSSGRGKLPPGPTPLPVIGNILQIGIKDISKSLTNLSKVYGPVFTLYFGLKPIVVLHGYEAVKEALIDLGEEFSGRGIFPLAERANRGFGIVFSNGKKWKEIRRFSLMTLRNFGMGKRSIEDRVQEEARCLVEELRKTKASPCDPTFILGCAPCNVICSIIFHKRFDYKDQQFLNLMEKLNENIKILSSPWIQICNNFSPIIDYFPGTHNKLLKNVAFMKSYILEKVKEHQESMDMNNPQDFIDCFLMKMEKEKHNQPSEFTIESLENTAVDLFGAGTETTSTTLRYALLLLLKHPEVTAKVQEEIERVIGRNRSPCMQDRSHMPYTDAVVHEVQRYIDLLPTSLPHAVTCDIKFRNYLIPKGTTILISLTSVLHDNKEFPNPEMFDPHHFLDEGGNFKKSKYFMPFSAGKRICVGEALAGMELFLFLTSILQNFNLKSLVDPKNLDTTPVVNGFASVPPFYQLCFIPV

CCOc1cc(C)ccc1OCc1nnc(SCC(=O)c2cccc([N+](=O)[O-])c2)n1C
AC50 [1]: inconclusive
EC50 [2]: > 53 µM (inactive)
AC50 [3]: 1.41 µM (inconclusive)
AC50 [4]: 15.8 µM (inconclusive)
IC50 [5]: 2.52 µM (active)
IC50 [6]: 2.11 µM (active)

Cn1nc(C(F)(F)F)cc1-c1ccc(/C=C(\C#N)C(=O)c2ccccc2)s1
EC50 [7]: 11.2 µM (inconclusive)
EC50 [8]: 21.1 µM (inconclusive)
EC50 [9]: > 99 µM (inactive)
EC50 [10]: > 99 µM (inactive)

COc1ccccc1-n1c(SCc2cc(=O)oc3cc(O)ccc23)nc2ccccc2c1=O
IC50 [11]: 15.2 µM (active)
IC50 [12]: 40.2 µM (active)

O=c1c(Cl)c(N/N=C/c2ccc(Br)cc2)cnn1-c1ccccc1
IC50 [13]: 21.6 µM (inactive)
IC50 [14]: > 80 µM (inactive)
IC50 [15]: 21.2 µM (active)
IC50 [16]: > 100 µM (inactive)
IC50 [17]: > 80 µM (inactive)
IC50 [18]: > 100 µM (inactive)

CN(C(=O)Cc1ccc(Cl)c(Cl)c1)C(CN1CCCC1)c1cccc(OCC(=O)O)c1 (stereo unspecified)
EC50 [19]: > 92.5 µM (inactive)
EC50 [20]: > 92.5 µM (inactive)
EC50 [21]: 17.2 µM (inactive)
AC50 [22]: 35.5 µM (inconclusive)

COc1cc(C2C(C#N)=C(N)Oc3[nH]nc(-c4cccs4)c32)cc(OC)c1O (stereo unspecified)
IC50 [23]: 3.38 µM (active)
IC50 [24]: 1.47 µM (active)
EC50 [9]: > 99 µM (inactive)
EC50 [10]: 13.3 µM (active)
IC50 [25]: > 20 µM (inactive)

CN(C)c1ccc(Cc2ccc(N(C)C)cc2)cc1
AC50 [26]: 12.6 µM (inconclusive)
IC50 [27]: 36.6 µM (active)
AC50 [22]: 70.8 µM (inconclusive)
IC50 [28]: 73.2 µM (active)
